Assays:
Type in all cases: in vivo
[1] = system: Setaria; test: Pre-emergence test/greenhouse, Setaria; conditions: 500 g of ai./ha, after three weeks
Experimental: (§1) Solvent: 5 parts by weight of acetone
(§2) Emulsifier: 1 part by weight of alkylaryl polyglycol ether
(§3) To produce a suitable preparation of active compound, 1 part by weight of active compound is mixed with the stated amount of solvent, the stated amount of emulsifier is added and the concentrate is diluted with water to the desired concentration.
(§4) Seeds of the test plants are sown in normal soil. After about 24 hours, the soil is sprayed with the preparation of active compound such that the particular amount of active compound desired is applied per unit area. The concentration of the spray liquor is chosen so that the particular amount of active compound desired is applied in 1000 liters of water per hectare.
(§5) After three weeks, the degree of damage to the plants is rated in % damage in comparison to the development of the untreated control.
(§6) 0%=no effect (like untreated control)

[2] = system: Viola; test: Pre-emergence test/greenhouse, Viola; conditions: after three weeks
Experimental: as §1, §2, §3, §4, §5, §6

[3] = system: Amaranthus; test: Pre-emergence test/greenhouse, Amaranthus; conditions: after three weeks
Experimental: as §1, §2, §3, §4, §5, §6

[4] = system: Matricaria; test: Pre-emergence test/greenhouse, Matricaria; conditions: 500 g of ai./ha, after three weeks
Experimental: as §1, §2, §3, §4, §5, §6

[5] = system: barley; test: Pre-emergence test/greenhouse, barley; conditions: 500 g of ai./ha, after three weeks
Experimental: as §1, §2, §3, §4, §5, §6

[6] = system: Amaranthus; test: Post-emergence test/greenhouse, Amaranthus; conditions: 1000 g of ai./ha, after three weeks
Experimental: as §1, §2, §3
(§7) Test plants of a height of 5-15 cm are sprayed with the preparation of active compound such that the particular amounts of active compound desired are applied per unit area. The concentration of the spray liquor is chosen so that the particular amounts of active compound desired are applied in 1000 l of water/ha.
as §5, §6

[7] = system: Sinapis; test: Post-emergence test/greenhouse, Sinapis; conditions: 1000 g of ai./ha, after three weeks
Experimental: as §1, §2, §3, §7, §5, §6

[8] = system: Setaria; test: Post-emergence test/greenhouse, Setaria; conditions: 1000 g of ai./ha, after three weeks
Experimental: as §1, §2, §3, §7, §5, §6

[9] = system: crop plants, such as, for example, cotton, maize, wheat and barley; test: Pre-emergence test, tolerance by crop plants; conditions: result in words
Experimental: as §1, §2, §3, §4, §5, §6

[10] = system: weeds; test: Pre-emergence test, activity against weeds; conditions: result in words
Experimental: as §1, §2, §3, §4, §5, §6

[11] = system: Abutilon; test: Post-emergence test/greenhouse, Abutilon; conditions: 1000 g of ai./ha, after three weeks
Experimental: as §1, §2, §3, §7, §5, §6

[12] = system: maize; test: Post-emergence test/greenhouse, maize; conditions: 1000 g of ai./ha, after three weeks
Experimental: as §1, §2, §3, §7, §5, §6

[13] = system: crop plants, such as, for example, maize, barley and wheat; test: Post-emergence test, tolerance by crop plants; conditions: result in words
Experimental: as §1, §2, §3, §7, §5, §6

[14] = system: weeds; test: Post-emergence test, activity against weeds; conditions: result in words
Experimental: as §1, §2, §3, §7, §5, §6

[15] = system: Veronica; test: Pre-emergence test/greenhouse, Veronica; conditions: 504 h, 500 g of ai./ha, after three weeks, read-out: degree of damage, Veronica
Experimental: as §1, §2, §3, §4, §5, §6

[16] = system: wheat; test: Pre-emergence test/greenhouse, wheat; conditions: 500 g of ai./ha, after three weeks
Experimental: as §1, §2, §3, §4, §5, §6

[17] = system: Sinapis; test: Pre-emergence test/greenhouse, Sinapis; conditions: 1000 g of ai./ha, after three weeks
Experimental: as §1, §2, §3, §4, §5, §6

[18] = system: Alopecurus; test: Pre-emergence test/greenhouse, Alopecurus; conditions: 1000 g of ai./ha, after three weeks
Experimental: as §1, §2, §3, §4, §5, §6

[19] = system: maize; test: Pre-emergence test/greenhouse, maize; conditions: after three weeks
Experimental: as §1, §2, §3, §4, §5, §6

[20] = system: Chenopodium; test: Pre-emergence test/greenhouse, Chenopodium; conditions: 500 g of ai./ha, after three weeks
Experimental: as §1, §2, §3, §4, §5, §6

[21] = system: Solanum; test: Pre-emergence test/greenhouse, Solanum; conditions: 500 g of ai./ha, after three weeks
Experimental: as §1, §2, §3, §4, §5, §6

[22] = system: Digitaria; test: Pre-emergence test/greenhouse, Digitaria; conditions: 500 g of ai./ha, after three weeks
Experimental: as §1, §2, §3, §4, §5, §6

[23] = system: Solanum; test: Post-emergence test/greenhouse, Solanum; conditions: 500 g of ai./ha, after three weeks
Experimental: as §1, §2, §3, §7, §5, §6

[24] = system: wheat; test: Post-emergence test/greenhouse, wheat; conditions: 500 g of ai./ha, after three weeks
Experimental: as §1, §2, §3, §7, §5, §6

[25] = system: Datura; test: Post-emergence test/greenhouse, Datura; conditions: 500 g of ai./ha, after three weeks
Experimental: as §1, §2, §3, §7, §5, §6

[26] = system: barley; test: Post-emergence test/greenhouse, barley; conditions: 500 g of ai./ha, after three weeks
Experimental: as §1, §2, §3, §7, §5, §6

[27] = system: Viola; test: Post-emergence test/greenhouse, Viola; conditions: 500 g of ai./ha, after three weeks
Experimental: as §1, §2, §3, §7, §5, §6

[28] = system: Ipomoea; test: Post-emergence test/greenhouse, Ipomoea; conditions: 500 g of ai./ha, after three weeks
Experimental: as §1, §2, §3, §7, §5, §6

[29] = system: soya; test: Pre-emergence test/greenhouse, soya; conditions: 500 g of ai./ha, after three weeks
Experimental: as §1, §2, §3, §4, §5, §6

CCC(CCc1cc(Br)cs1)Nc1nc(NC(C)=O)nc(C(C)(C)F)n1 (stereo not drawn) [drawing 249]
degree of damage, Setaria [1]: 95%
degree of damage, Viola ([2]; 500 g of ai./ha): 100%

CCC(CCc1sccc1Br)Nc1nc(N)nc(C(C)(C)F)n1 (stereo not drawn) [drawing 230]
degree of damage, Amaranthus ([3]; 500 g of ai./ha): 100%

CCC(CCc1cc(C)sc1C)Nc1nc(NC(C)=O)nc(C(C)(C)F)n1 (stereo not drawn) [drawing 254]
degree of damage, Matricaria [4]: 95%
degree of damage, Viola ([2]; 500 g of ai./ha): 100%

CCC(CCc1cc(Br)cs1)Nc1nc(NC(C)=O)nc(C(C)F)n1 (stereo not drawn) [drawing 248]
degree of damage, Setaria [1]: 95%
degree of damage, barley [5]: 0%
degree of damage, Viola ([2]; 500 g of ai./ha): 100%

CC(CCCc1cccs1)Nc1nc(N)nc(C(C)(C)F)n1 (stereo not drawn) [Example 1, 2-amino-4-(1-fluoro-1-methyl-ethyl)-6-(1-methyl-4-(thien-2-yl)-butylamino)-1,3,5-triazine]
degree of damage, Amaranthus [6]: 100%
degree of damage, Sinapis [7]: 100%
degree of damage, Setaria [8]: 80%
tolerance by crop plants [9]: largely tolerated well
activity against weeds [10]: strong activity against weeds
degree of damage, Abutilon [11]: 95%
degree of damage, maize [12]: 30%
tolerance by crop plants [13]: tolerated well
activity against weeds [14]: strong activity against weeds

CCC(CCc1sccc1Br)Nc1nc(N)nc(C(C)(C)F)n1 (stereo not drawn) [drawing 240]
pest or weed control at 500 g/ha [15]: 100%

CC(CCCc1cccs1)Nc1nc(N)nc(C(C)(C)F)n1 (stereo not drawn) [drawing 245]
degree of damage, Viola ([2]; 1000 g of ai./ha): 100%

CCC(CCc1sccc1Br)Nc1nc(NC(C)=O)nc(C(C)F)n1 (stereo not drawn) [drawing 252]
degree of damage, Matricaria [4]: 100%

CCC(CCc1sccc1Br)Nc1nc(NC(C)=O)nc(C(C)F)n1 (stereo not drawn) [drawing 232]
degree of damage, Amaranthus ([3]; 500 g of ai./ha): 100%
degree of damage, wheat [16]: 0%

CC(CCCc1cccs1)Nc1nc(N)nc(C(C)(C)F)n1 (stereo not drawn) [drawing 225]
degree of damage, Sinapis [17]: 90%
degree of damage, Alopecurus [18]: 80%
degree of damage, Amaranthus ([3]; 1000 g of ai./ha): 95%
degree of damage, maize ([19]; 1000 g of ai./ha): 0%

CCC(CCc1ccc(Br)s1)Nc1nc(N)nc(C(C)F)n1 (stereo not drawn) [drawing 246]
degree of damage, Viola ([2]; 500 g of ai./ha): 100%

CCC(CCc1cc(Br)cs1)Nc1nc(NC(C)=O)nc(C(C)(C)F)n1 (stereo not drawn) [drawing 239]
degree of damage, Chenopodium [20]: 100%
degree of damage, Solanum [21]: 100%
degree of damage, Digitaria [22]: 100%
pest or weed control at 500 g/ha [15]: 100%

CCC(CCc1ccc(Br)s1)Nc1nc(N)nc(C(C)F)n1 (stereo not drawn) [drawing 226]
degree of damage, maize ([19]; 500 g of ai./ha): 0%
degree of damage, wheat [16]: 0%

CCC(CCc1ccc(Br)s1)Nc1nc(N)nc(C(C)(C)F)n1 (racemic) [Example 5]
degree of damage, Solanum [23]: 100%
degree of damage, wheat [24]: 0%
tolerance by crop plants [9]: largely tolerated well
degree of damage, Datura [25]: 100%
activity against weeds [10]: strong activity against weeds
degree of damage, barley [26]: 0%
tolerance by crop plants [13]: tolerated well
degree of damage, Viola [27]: 95%
activity against weeds [14]: strong activity against weeds
degree of damage, Ipomoea [28]: 95%

CCC(CCc1cc(C)sc1C)Nc1nc(N)nc(C(C)F)n1 (stereo not drawn) [drawing 243]
degree of damage, Solanum [21]: 100%
degree of damage, Digitaria [22]: 100%
pest or weed control at 500 g/ha [15]: 100%

CCC(CCc1ccc(Br)s1)Nc1nc(N)nc(C(C)(C)F)n1 (stereo not drawn) [drawing 237]
degree of damage, Chenopodium [20]: 100%
degree of damage, Solanum [21]: 100%
degree of damage, Digitaria [22]: 100%
pest or weed control at 500 g/ha [15]: 100%

CCC(CCc1cc(C)sc1C)Nc1nc(N)nc(C(C)F)n1 (stereo not drawn) [drawing 263]
degree of damage, soya [29]: 0%

CCC(CCc1ccc(Br)s1)Nc1nc(N)nc(C(C)(C)F)n1 (stereo not drawn) [drawing 227]
degree of damage, maize ([19]; 500 g of ai./ha): 0%
degree of damage, wheat [16]: 0%

CCC(CCc1cc(C)sc1C)Nc1nc(N)nc(C(C)F)n1 (stereo not drawn) [drawing 253]
degree of damage, Viola ([2]; 500 g of ai./ha): 100%
